# System: TNF
# Assay: Endotoxic shock models, in vivo TNF activity
# Conditions: endotoxic shock model; serum TNF after endotoxin injection
# Excerpt: Two models of endotoxic shock have been utilized to determine in vivo TNF activity for the compounds of Formula (I) and (II). The protocol used in these models is described in Badger et al., EPO published Application 0 411 754 A2, Feb. 6, 1991, and in Hanna. WO 90/15534, Dec. 27, 1990.
smiles,measurement,value
"COc1ccc(C=O)cc1OC1CCCC1 [Example 1, 3-Cyclopentyloxy-4-methoxybenzaldehyde]",in vivo response in reducing serum levels of TNF induced by the injection of endotoxin,positive in vivo response

# — patent US6518306B1, “1,4-substitued 4,4-diaryl cyclohexanes” (SmithKline Beecham Corporation, priority 1999, dated 2003)
